pKi: −log10 of the molar value. Like-named read-outs stand apart in the source and are kept apart here.
What was measured:
[1] = test system: polymorphoneucleocyte (PMN); assay: Extracellular Matrix (ECM) degradation assay; type: cell-based; settings: PMN's stimulated with opsonized zymosan, 4 hr at 37° C.; for inhibition at 1 µM / ECM DATA % Inhibition 1 uM: 1 uM inhibitor; for inhibition at 5 µM / ECM DATA % Inhibition 5 uM: 5 uM inhibitor
Method: Forty-eight well plates on which extracellular matrix had been established were supplied to Cortech by Dr. Simon's group at the State University of New York at Stony Brook. Briefly, the plates were prepared as follows: R22 rat heart smooth muscle cells were seeded into wells at 2.5×10^4 cells/cm. The cells were fed every 4 days with Eagle's Minimal Essential Media supplemented with fetal bovine serum, tryptose phosphate broth, cefotaxime and streptomycin. At confluence, daily supplements of 50 ug/ml ascorbic acid were added for 8 to 10 days during the synthesis of the ECM layer. [^35S]sulfate and [^3H]proline were also added to the culture media to incorporate radiolabel into the matrix. Cells were later lysed with 25 mM NH4OH. Plates were washed three times with water and once with phosphate-buffered saline containing 0.02% NaN3. Plates were stored at 4° C. until use.
Matrix degradation assays were performed as follows: 0.40 ml of Hanks balance salt solution (HBSS) containing 1 or 5 uM test inhibitor (final concentration; diluted from DMSO stock solution; <2% DMSO final concentration) was added to the wells. After 30 minutes, 50 ul of a polymorphoneucleocyte (PMN) suspension was added resulting in 5×10^5 cells/well. PMN's were stimulated with opsonized zymosan. Zymosan particles were washed and suspended in 0.5 ml human serum for 1 hr at 37° C., vortexing every 15 min. The particles were then washed three times with HBSS and added to wells at a ratio of 10 particles/PMN in a volume of 50 ul. After a 4 hr incubation at 37° C., a 100 ul aliquot of the supernatant was withdrawn for scintillation counting. Following removal of the remaining supernatant, the residual ECM was solubilized with 0.5 ml 2M NaOH. The amount of tritium in this solubilized ECM was accessed by scintillation. ECM degradation data are expressed as (soluble counts released/total ECM counts)—(basal counts released without PMN's/total ECM counts).

[2] = biological target: T1, human neutrophil elastase (HNE) (Homo sapiens, UniProt P08246); assay: HNE Ki of CE compounds, tested as described in WO 96/16080; type: biochemical; settings: for pKi: read-out: HNE Ki
T1 sequence (P08246 30-267): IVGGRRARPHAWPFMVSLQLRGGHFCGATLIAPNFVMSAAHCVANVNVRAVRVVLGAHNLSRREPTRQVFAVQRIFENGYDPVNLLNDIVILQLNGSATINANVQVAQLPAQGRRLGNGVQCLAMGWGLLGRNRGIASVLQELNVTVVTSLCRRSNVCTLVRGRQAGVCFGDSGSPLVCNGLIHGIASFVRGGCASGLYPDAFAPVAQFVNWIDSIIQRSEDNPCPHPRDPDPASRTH

[3] = Blood level screening after oral dose; type: in vivo, Sprague-Dawley rats; settings: rat, oral gavage 10 mg/kg; for concentration at 1 h / concentration at 3 h / concentration at 6 h: male, Sprague-Dawley, plasma; for concentration at 1 h: read-out: Plasma Levels (μM) 1 hr; for concentration at 3 h: read-out: Plasma Levels (μM) 3 hr; for concentration at 6 h: read-out: Plasma Levels (μM) 6 hr
Outline: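 Unfasted male Sprague-Dawley rats received 10 mg/kg by oral gavage in PEG, PEG-400 or PEG:H2O:EtOH. Plasma was solvent-extracted and the inhibitor measured by HPLC or LC/MS.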

| pKi [2] | Plasma Levels (μM) 3 hr [3] [µM] | Plasma Levels (μM) 1 hr [3] [µM] | Plasma Levels (μM) 6 hr [3] [µM] | SMILES | inhibition at 1 µM [1] [%] | inhibition at 5 µM [1] [%] | Ki ([2]; HNE Ki (nM)) [nM] | concentration at 1 h [3] [µM] | concentration at 3 h [3] [µM] | concentration at 6 h [3] [µM] | ECM DATA % Inhibition 1 uM [1] [%] | ECM DATA % Inhibition 5 uM [1] [%] |
| --- | --- | --- | --- | --- | --- | --- | --- | --- | --- | --- | --- | --- |
| 7.85 | 0.289 | 0.598 | 0.078 | Cc1cccc(Cc2nnc(C(=O)[C@@H](NC(=O)CN3C(=O)NC4(CCCCC4)C3=O)C(C)C)o2)c1 [CE2241, 4-Spirocyclohexane-2,5-imidazolidinedione-N-[1-(2-[5-(3-methylbenzyl)-1,3,4-oxadiazolyl]carbonyl)-2-(S)-methylpropyl]acetamide] | – | – | – | – | – | – | 18.6 | 31.7 |
| 7.96 | 2.104 | 2.801 | 1.598 | Cc1cccc(Cc2nnc(C(=O)[C@@H](NC(=O)CN3C(=O)N[C@H](Cc4c[nH]c5ccccc45)C3=O)C(C)C)o2)c1 [CE2243, 4-(R)-(3-Indolemethylene)-2,5-imidazolidinedione-N-[1-(2-[5-(3-methylbenzyl)-1,3,4-oxadiazolyl]carbonyl)-2-(S)-methylpropyl]acetamide] | – | – | – | – | – | – | 48 | 54.9 |
| 7.73 | 0.837 | 1.182 | 0.496 | Cc1cccc(Cc2nnc(C(=O)[C@@H](NC(=O)CN3C(=O)N[C@H](CC(C)C)C3=O)C(C)C)o2)c1 [CE2246, 4-(R)-(2-Isobutyl)-2,5-imidazolidinedione-N-[1-(2-[5-(3-methylbenzyl)-1,3,4-oxadiazolyl]carbonyl)-2-(S)-methylpropyl]acetamide] | – | – | – | – | – | – | −2.3 | 32.6 |
| 7.20 | 0.572 | 1.017 | 0.186 | Cc1cccc(Cc2nnc(C(=O)[C@@H](NC(=O)CN3C(=O)N[C@H](CC(=O)N(C)C)C3=O)C(C)C)o2)c1 [CE2247, 4-(R)-(2-N,N-Dimethylcarboxamido)-2,5-imidazolidinedione-N-[1-(2-[5-(3-methylbenzyl)-1,3,4-oxadiazolyl]carbonyl)-2-(S)-methylpropyl]acetamide] | – | – | – | – | – | – | 13.3 | 21.2 |
| 7.89 | 0.704 | 1.179 | 0.213 | COC(=O)CCC[C@H]1NC(=O)N(CC(=O)N[C@H](C(=O)c2nnc(Cc3cccc(C)c3)o2)C(C)C)C1=O [CE2249, 4-(R)-(3-Carbomethoxy)propyl-2,5-imidazolidinedione-N-[1-(2-[5-(3-methylbenzyl)-1,3,4-oxadiazolyl]carbonyl)-2-(S)-methylpropyl]acetamide] | – | – | – | – | – | – | 22.4 | 42.4 |
| 9.37 | 1.11 | 1.63 | 0.73 | Cc1cccc(Cc2nnc(C(=O)[C@@H](NC(=O)Cn3c(-c4ccc(F)cc4)ccc(N)c3=O)C(C)C)o2)c1 [CE2251, 2-[5-Amino-6-oxo-2-(4-fluorophenyl)-1,6-dihydro-1-pyridinyl]-N-[1-(2-[5-(3-methylbenzyl)-1,3,4-oxadiazolyl]carbonyl)-2-(S)-methylpropyl]acetamide] | – | – | – | – | – | – | 54.1 | 74.5 |

The next lines start with the compound.

| SMILES | pKi [2] | Plasma Levels (μM) 3 hr [3] [µM] | Plasma Levels (μM) 1 hr [3] [µM] | Plasma Levels (μM) 6 hr [3] [µM] | inhibition at 1 µM [1] [%] | inhibition at 5 µM [1] [%] | Ki ([2]; HNE Ki (nM)) [nM] | concentration at 1 h [3] [µM] | concentration at 3 h [3] [µM] | concentration at 6 h [3] [µM] | ECM DATA % Inhibition 1 uM [1] [%] | ECM DATA % Inhibition 5 uM [1] [%] |
| --- | --- | --- | --- | --- | --- | --- | --- | --- | --- | --- | --- | --- |
| Cc1cccc(Cc2nnc(C(=O)[C@@H](NC(=O)CN3C(=O)CN=C(c4ccccn4)c4ccccc43)C(C)C)o2)c1 [CE2217, 2-Oxo-5-(2-pyridyl)-1,4-benzodiazepine-N-[1-(2-[5-(3-methylbenzyl)-1,3,4-oxadiazolyl]carbonyl)-2-(S)-methylpropyl]acetamide] | – | – | – | – | 28.1 | 41.2 | 5.5 | 1.99 | 0.521 | – | – | – |
| Cc1cccc(Cc2nnc(C(=O)C(NC(=O)CN3C(=O)C(N)N=C(c4ccc(Cl)cc4)c4ccccc43)C(C)C)o2)c1 [CE2224, (R,S)-3-Amino-2-oxo-5-(4-chlorophenyl)-1,4-benzodiazepine-N-[1-(2-[5-(3-methylbenzyl)-1,3,4-oxadiazolyl]carbonyl)-2-(R,S)-methylpropyl]acetamide] | 9.00 | – | – | – | 43.2 | 66.8 | – | 1.84 | 1.94 | 1.96 | – | – |
| Cc1cccc(Cc2nnc(C(=O)C(NC(=O)CN3C(=O)C(NC(=O)OCc4ccccc4)N=C(c4ccccc4Cl)c4cc(Cl)ccc43)C(C)C)o2)c1 [CE2230, (R,S)-3-Benzyloxycarbonylamino-2-oxo-5-(2-chlorophenyl)-1,4-(2′-chlorobenzodiazepine)-N-[1-(2-[5-(3-methylbenzyl)-1,3,4-oxadiazolyl]carbonyl)-2-(R,S)-methylpropyl]acetamide] | 8.59 | 0 | – | – | – | – | – | – | – | – | 37.7 | 37.8 |
| Cc1cccc(Cc2nnc(C(=O)[C@@H](NC(=O)CN3C(=O)CN=C(C4CCNCC4)c4ccccc43)C(C)C)o2)c1 [CE2233, 2-Oxo-5-(4-piperidinyl)-1,4-benzodiazepine-N-[1-(2-[5-(3-methylbenzyl)-1,3,4-oxadiazolyl]carbonyl)-2-(S)-methylpropyl]acetamide] | 7.38 | – | – | – | 54.7 | 55.4 | – | 0.07 | 0.065 | 0.036 | – | – |
| Cc1cccc(Cc2nnc(C(=O)[C@@H](NC(=O)CN3C(=O)CN=C(c4ccc(C(F)(F)F)cc4)c4ccccc43)C(C)C)o2)c1 [CE2237, 2-Oxo-5-(4-trifluoromethylphenyl)-1,4 benzodiazepine-N-[1-(2-[5-(3-methylbenzyl)-1,3,4-oxadiazolyl]carbonyl)-2-(S)-methylpropyl]acetamide] | 8.52 | – | – | – | 34.6 | 42.6 | – | 1.02 | 1.8 | 0.84 | – | – |
| Cc1cccc(Cc2nnc(C(=O)[C@@H](NC(=O)CN3C(=O)CNC3=O)C(C)C)o2)c1 [CE2238, 2,5-Imidazolidinedione-N-[1-(2-[5-(3-methylbenzyl)-1,3,4-oxadiazolyl]carbonyl)-2-(S)-methylpropyl]acetamide] | 6.79 | – | – | – | 10.1 | 18.8 | – | 2.57 | 1.74 | 1.03 | – | – |
| Cc1cccc(Cc2nnc(C(=O)[C@@H](NC(=O)CN3C(=O)NC(C)(C)C3=O)C(C)C)o2)c1 [CE2239, 4,4-Dimethyl-2,5-imidazolidinedione-N-[1-(2-[5-(3-methylbenzyl)-1,3,4-oxadiazolyl]carbonyl)-2-(S)-methylpropyl]acetamide] | 7.37 | 1.15 | 1.46 | 0.71 | – | – | – | – | – | – | 11.9 | 11.3 |
| Cc1cccc(Cc2nnc(C(=O)[C@@H](NC(=O)CN3C(=O)N[C@@H](C(C)C)C3=O)C(C)C)o2)c1 [CE2240, 4-(S)-(2-Isopropyl)-2,5-imidazolidinedione-N-[1-(2-[5-(3-methylbenzyl)-1,3,4-oxadiazolyl]carbonyl)-2-(S)-methylpropyl]acetamide] | 7.52 | 0.5 | 1.12 | 0.29 | – | – | – | – | – | – | 16.8 | 13.5 |
| Cc1cccc(Cc2nnc(C(=O)[C@@H](NC(=O)CN3C(=O)CN=C(c4ccc5c(c4)OCO5)c4ccccc43)C(C)C)o2)c1 [CE2248] | 8.51 | 1.58 | 1.65 | 1.22 | – | – | – | – | – | – | 39.4 | 63.2 |

From patent publication US6656911B2, “Serine protease inhibitors” (Cortech, Inc., priority 1994, dated 2003)
